Where two headings read alike, the source gives them in different places. Marks after values point to notes of the source that are not given here.
Assays:
U-87 GBM cell line [1] = conditions: previously published; cited from earlier work
LN229 GBM cell line = assay: antiproliferative activity, MTT assay, LN229; type: cell-based; conditions: Homo sapiens, LN-229, 72 h treatment
Description: (§1) Cell-based assays were performed using four GBM cell lines, i.e., U-87, LN18, LN229, and DBTRG, cultured in Dulbecco’s modified Eagle medium (DMEM) (U-87, LN18, and LN229) or Roswell Park Memorial Institute medium (RPMI 1640) (DBTRG). Both media were implemented with 10% fetal bovine serum (FBS), 2 mM L-glutamine, and 10,000 units/mL penicillin/streptomycin at 37 °C in a 5% CO2 atmosphere. […] The final concentration of DMSO used never exceeded 0.5% v/v, and appropriate controls were always performed in each assay. […] These were cultured in DMEM supplemented with 10% FBS, 2 mM L-glutamine, and 10,000 units/mL penicillin/streptomycin at 37 °C in a 5% CO2 atmosphere. The protocol used to assess the cytotoxic effect on both healthy cell lines was the same described above for the antiproliferative assay. For both the antiproliferative and the cytotoxic assays, 3-(4,5-dimethylthiazol-2-yl)-2,5-diphenyltetrazolium bromide (MTT) was used to assess cell viability as previously described. Briefly, 150 μL of MTT (5 mg/mL in FBS-free culture medium) was added to each well, and the plates incubated for 4 h in a 5% CO2 atmosphere at 37 °C. Afterward, formazan violet crystals were solubilized in 150 μL of isopropanol, and the absorbance was quantified at 570 nm using a Multiskan SkyHigh Microplate Spectrophotometer (ThermoFisher, Waltham, MA, USA). Cell viability was expressed as a percentage of DMSO-treated cells (controls), taken as 100%. […] To support MTT data, cytotoxicity assays was always paralleled by a careful observation of cells under a phase-contrast light microscope, as described in USP 28 (United States Pharmacopeia edition 2005) as an alternative method. This analysis was performed by an expert operator blind to the treatment, and exemplificative photos representing the effects of compound 5 on LN229 and DBTRG cells are reported in Figures S2 and S3 (Supplementary Materials).

[2] = cytotoxicity on nontumoral healthy cells, MTT assay, FIBRO 2-93; type: cell-based, human; conditions: human, FIBRO 2-93 healthy fibroblasts, 72 h treatment, MTT
Description: (§4) The protocol used to assess the cytotoxic effect on both healthy cell lines was the same described above for the antiproliferative assay. For both the antiproliferative and the cytotoxic assays, 3-(4,5-dimethylthiazol-2-yl)-2,5-diphenyltetrazolium bromide (MTT) was used to assess cell viability as previously described [20]. […] Afterward, formazan violet crystals were solubilized in 150 μL of isopropanol, and the absorbance was quantified at 570 nm using a Multiskan SkyHigh Microplate Spectrophotometer (ThermoFisher, Waltham, MA, USA). Cell viability was expressed as a percentage of DMSO-treated cells (controls), taken as 100%.

fibroblasts FIBRO 2-93 = assay: as above; type: cell-based, human; conditions: for CC50: 72 h treatment, MTT; for CC50 times higher than IC50: CC50 on FIBRO 2-93 and HaCaT vs IC50 on GBM cells
Description: as §4

[3] = HLM, previously published, cited from earlier work; for Metabolite Formation M1: M1 = M − HCl + O; for Metabolite Formation M3: M3 = M—group bearing NH moiety in R2
[4] = cytotoxicity on nontumoral healthy cells, MTT assay, HaCaT; type: cell-based, human; conditions: human, HaCaT keratinocytes, 72 h treatment
Description: as §4

keratinocytes HaCaT = assay: as above; type: cell-based, human; conditions: 72 h treatment
Description: as §4

DBTRG GBM cell line = assay: antiproliferative activity, MTT assay, DBTRG; type: cell-based; conditions: Homo sapiens, 72 h treatment
Description: as §1

LN18 GBM cell line = assay: antiproliferative activity, MTT assay, LN18; type: cell-based; conditions: Homo sapiens, LN-18, 72 h treatment
Description: as §1

PAMPA, BBB permeability = type: in vitro ADME; conditions: RT; for BBB membrane retention (MR%): 5 h, pH 7.4; for Papp at 5 h, 500 µM: pH 7.4, PAMPA
Description: (§2) UV/LC–MS chromatographic analyses were carried out using an Agilent 1100 LC/MSD VL system (G1946C) purchased from Agilent Technologies (Palo Alto, CA, USA). […] The analysis began with 5% B (t = 0–1 min), increased to 95% (t = 1–10 min), maintained at 95% (t = 10–19 min), and finally returned to 5% […]. The analyses were performed at a flow rate of 0.6 mL/min, UV detection was monitored at 254 nm, and spectra were acquired over the scan range of m/z 100–1000 in both positive and negative modes.
(§3) The DMSO stock of each compound was diluted with phosphate buffer (PBS 25 mM, pH 7.4) to a final concentration of 500 µM in order to obtain the “donor”. For GI and BBB permeability, filters were coated with 10 µL of 1% w/v dodecane phosphatidylcholine solution or 5 µL of 10% w/v CHCl3/dodecane brain polar lipid solution. The donor (150 µL) was poured over the artificial membranes on the filter plate. DMSO/PBS (300 µL, 1:1 v/v) was then added to the acceptor wells. After assembling the sandwich plates, the experiments were run for 5 h at room temperature (RT). Lastly, the amount of compound passed though the artificial membranes was determined using the UV/LC–MS method described above. Apparent permeability (Papp) and membrane retention (MR%) were determined as previously described.

PAMPA, GI permeability = type: in vitro ADME; conditions: RT; for GI membrane retention (MR%): 5 h, pH 7.4; for Papp at 5 h, 500 µM: pH 7.4, PAMPA
Description: as §2, §3

U-87 GBM cell line [5] = assay: antiproliferative activity, MTT assay, U-87; type: cell-based; conditions: Homo sapiens, 72 h treatment
Description: as §1

[6] = metabolic stability assay in human liver microsomes; type: in vitro ADME; conditions: HLM 0.2 mg/mL, NADPH, 1 h, 37 °C
Description: as §2
Each DMSO compound solution was incubated for 1 h at 37 °C in the presence of 500 µL of PBS (25 mM, pH 7.4), human liver microsomal (HLM) proteins (0.2 mg/mL), and 10 mM NADPH solution in MgCl2 (48 mM). The reactions were stopped with 1.0 mL of cold ACN. The samples were centrifuged (4000 rpm for 10 min), and the supernatants were collected, dried under N2 flow, and suspended in 100 µL of methanol (MeOH). Parent drugs and metabolites were determined using the previously described HPLC/UV–MS method. The percentage metabolic stability was calculated by comparing the metabolized and unmetabolized compounds.

LN229 cells [7] = assay: reversible/irreversible effect on LN229 cell death (MTT); type: cell-based, human; conditions: for further decrease in cell viability: 24 h treatment followed by 48 h without compound, vs 24 h
LN229 cells [8] = assay: cell-cycle analysis by flow cytometry, LN229; type: cell-based, human; conditions: LN229, 72 h at IC50 (6.9 µM)
c-Src = target: T1, c-Src (Homo sapiens, UniProt P12931); assay: cell-free enzymatic assay (ADP-Glo), c-Src; type: biochemical
T1 construct: purchased Promega (Madison, WI, USA)
Description: (§5) The reactions were carried out in accordance with the manufacturer’s instructions, with minor modifications. The experiments were run using all substrates at least twice the concentration of apparent Km. […] All reactions were run out at 30 °C for 10 min with 10–50 ng of enzyme and 10 µL of 10% DMSO. Protein low-binding tubes were used to prevent peptide adsorption onto the plastic surface. To detect kinase activity, the ADP-Glo Kinase Assay (Promega, Madison, WI, USA) was used according to the manufacturer’s protocol. Into white 384-well plates, reactions were stopped for 50 min at RT by adding 10 µL of ADP-Glo Reagent (Promega, Madison, WI, USA). After 30 min, 20 µL of Detection Reagent (Promega, Madison, WI, USA) was added, and the reaction was read using a GloMax Discover microplate reader (Promega, Madison, WI, USA). […] Compounds analyzed were considered to act as ATP-competitive inhibitors.

LN229 cells [9] = assay: T-scratch assay (cell migration); type: cell-based, human; conditions: for wound closure: after 72 h; for wound left opened: all timepoints (24–48–72 h)
Description: The scratched area was observed and photographed at 10× magnification after 0–24–48–72 h (see Figure S5, Supplementary Materials).

DBTRG cells = assay: cell-cycle analysis by flow cytometry, DBTRG; type: cell-based, human; conditions: 72 h at IC50 (8.5 µM)
[10] = parameters: method as in PMID 21443205; conditions: previously published; cited from earlier work
Abl = target: T2, Abl (Homo sapiens, UniProt P00519); assay: cell-free enzymatic assay (ADP-Glo), Abl; type: biochemical; conditions: 30 µM ATP, 50 µM Abltide
T2 construct: purchased Promega (Madison, WI, USA)
Description: as §5

[11] = 100 µM ATP, 500 µM Src-peptide, read-out: c-Src Ki

T1 sequence (P12931 whole entry): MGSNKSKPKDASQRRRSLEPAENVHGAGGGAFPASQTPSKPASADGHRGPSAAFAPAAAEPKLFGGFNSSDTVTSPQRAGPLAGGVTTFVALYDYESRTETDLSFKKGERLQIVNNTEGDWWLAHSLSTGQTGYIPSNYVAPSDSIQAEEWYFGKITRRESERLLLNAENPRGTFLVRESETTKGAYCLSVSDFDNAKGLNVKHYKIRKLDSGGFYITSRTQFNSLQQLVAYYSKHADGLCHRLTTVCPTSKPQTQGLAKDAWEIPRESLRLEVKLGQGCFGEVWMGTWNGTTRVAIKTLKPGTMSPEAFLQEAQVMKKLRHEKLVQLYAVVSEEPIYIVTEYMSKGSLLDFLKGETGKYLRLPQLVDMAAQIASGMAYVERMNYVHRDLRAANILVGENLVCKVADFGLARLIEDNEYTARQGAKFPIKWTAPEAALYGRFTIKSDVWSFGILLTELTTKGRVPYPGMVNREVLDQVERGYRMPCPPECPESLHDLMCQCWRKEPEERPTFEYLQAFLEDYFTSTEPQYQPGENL
T2 sequence (P00519 whole entry): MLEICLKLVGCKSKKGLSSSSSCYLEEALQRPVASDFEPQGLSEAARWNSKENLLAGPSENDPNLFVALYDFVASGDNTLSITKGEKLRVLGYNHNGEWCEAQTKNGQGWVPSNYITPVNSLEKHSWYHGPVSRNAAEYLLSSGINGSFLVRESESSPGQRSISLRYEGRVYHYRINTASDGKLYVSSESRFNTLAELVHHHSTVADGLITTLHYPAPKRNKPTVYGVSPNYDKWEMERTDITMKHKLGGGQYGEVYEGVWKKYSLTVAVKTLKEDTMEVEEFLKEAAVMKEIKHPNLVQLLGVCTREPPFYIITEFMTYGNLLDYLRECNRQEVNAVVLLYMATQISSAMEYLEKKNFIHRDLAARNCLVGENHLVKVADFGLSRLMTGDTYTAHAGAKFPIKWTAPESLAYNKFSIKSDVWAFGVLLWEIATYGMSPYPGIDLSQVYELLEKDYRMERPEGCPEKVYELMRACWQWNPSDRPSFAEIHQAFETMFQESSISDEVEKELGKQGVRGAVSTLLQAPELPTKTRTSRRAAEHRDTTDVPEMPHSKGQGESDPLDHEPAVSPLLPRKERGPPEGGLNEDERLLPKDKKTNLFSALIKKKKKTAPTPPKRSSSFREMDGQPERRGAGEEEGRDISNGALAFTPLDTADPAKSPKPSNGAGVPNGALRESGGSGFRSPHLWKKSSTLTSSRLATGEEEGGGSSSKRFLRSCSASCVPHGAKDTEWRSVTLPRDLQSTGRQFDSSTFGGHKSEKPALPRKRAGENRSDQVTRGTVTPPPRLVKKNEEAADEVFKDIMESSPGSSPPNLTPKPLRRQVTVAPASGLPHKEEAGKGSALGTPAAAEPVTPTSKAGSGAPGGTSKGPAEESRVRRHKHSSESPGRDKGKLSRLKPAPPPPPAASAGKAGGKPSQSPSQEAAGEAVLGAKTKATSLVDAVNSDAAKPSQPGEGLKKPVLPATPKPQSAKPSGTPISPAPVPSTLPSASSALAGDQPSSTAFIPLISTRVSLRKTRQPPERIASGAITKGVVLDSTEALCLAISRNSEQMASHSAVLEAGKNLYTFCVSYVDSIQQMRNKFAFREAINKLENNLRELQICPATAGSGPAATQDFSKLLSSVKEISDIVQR

SMILES	IC50 (LN229 GBM cell line) [µM]	IC50 (DBTRG GBM cell line) [µM]	IC50 (LN18 GBM cell line) [µM]	BBB membrane retention (MR%) (PAMPA, BBB permeability) [%]	Papp at 5 h, 500 µM (PAMPA, BBB permeability) [×10⁻⁶ cm/s]	GI membrane retention (MR%) (PAMPA, GI permeability) [%]	Papp at 5 h, 500 µM (PAMPA, GI permeability) [×10⁻⁶ cm/s]	melting point [°C]	IC50 (U-87 GBM cell line [5]) [µM]	Metabolic Stability [6] [%]	further results
ClC(Cn1ncc2c(NCc3ccccc3)ncnc21)c1ccccc1 (centres unmarked) [Compound 1]	3.4 ± 0.8	4.3 ± 0.8	3.6 ± 0.5								IC50 (U-87 GBM cell line [1]): 2.9 ± 1.1 µM; CC50 at 72 h [2]: ~87 µM; CC50 (fibroblasts FIBRO 2-93): 86.9 ± 4.2 µM; CC50 times higher than IC50 (fibroblasts FIBRO 2-93): 10 times; Metabolite Formation M1 [3]: 14.5%; Metabolite Formation M2 ([3]; M2 = M + OH): < 0.1%; Metabolite Formation M3 [3]: 2.6%; Metabolite Formation M4 ([3]; M4 = M − Cl + OH (−35 + 17)): 4.5%; Metabolic Stability [3]: lower than 80%; CC50 at 72 h [4]: ~87 µM; CC50 (keratinocytes HaCaT): 88.7 ± 5.7 µM
ClC(Cn1ncc2c(NC3CC3)ncnc21)c1ccccc1 (centres unmarked) [Compound 2]	> 100	> 100	49.4 ± 2.8	55.0	4.96	34.7	6.46	194 to 195	> 100		
Fc1ccccc1CNc1ncnc2c1cnn2CC(Cl)c1ccccc1 (centres unmarked) [Compound 3]	29.2 ± 2.6	15.1 ± 2.1	27.5 ± 2.1	4.8	≥ 10	7.3	≥ 10		40.2 ± 3.6	80.4	
Fc1ccc(CNc2ncnc3c2cnn3CC(Cl)c2ccccc2)cc1 (centres unmarked) [Compound 4]	> 100	68.5 ± 3.8	9 ± 1.2	2.1	≥ 10	7.8	≥ 10	161 to 162	29.8 ± 2.5		
Fc1ccc(C(Cl)Cn2ncc3c(NCc4ccccc4)ncnc32)cc1 (centres unmarked) [Compound 5]	6.9 ± 0.5	8.5 ± 1.4	10.8 ± 1.4	5.6	≥ 10	9.2	≥ 10	143 to 144	6.8 ± 0.3	84.2	further decrease in cell viability (LN229 cells [7]; 10 µM): ~ −30%; further decrease in cell viability (LN229 cells [7]; 100 µM): ~ −30%; reversibility of cytotoxic effect (LN229 cells [7]; 24 h treatment, 48 h drug-free medium): irreversible cytotoxic effect; CC50 at 72 h [2]: > 90 µM; CC50 (fibroblasts FIBRO 2-93): 91.7 ± 5.3 µM; CC50 times higher than IC50 (fibroblasts FIBRO 2-93): 10 times; CC50 at 72 h [4]: > 90 µM; CC50 (keratinocytes HaCaT): 126 ± 6.4 µM; change in cells in G0/G1 phase vs control (LN229 cells [8]): −32.4%; change in cells in sub G0/G1 phase vs control (LN229 cells [8]): +32.1%; percentage of cells in the S and G2/M phases vs control (LN229 cells [8]): No significant differences; Ki (c-Src; [11]): 3.14 ± 0.38 µM; wound closure (LN229 cells [9]; 0.25 µM): ~60%; wound closure (LN229 cells [9]; 0.5 µM): ~60%; wound left opened (LN229 cells [9]; 2.5 µM): more than 80%; wound left opened (LN229 cells [9]; 5 µM): more than 80%; change in cells in G2/M phase vs control (DBTRG cells): +38.1%; change in cells in sub G0/G1 area vs control (DBTRG cells): +15.6%
Fc1ccc(C(Cl)Cn2ncc3c(NCc4ccccc4F)ncnc32)cc1 (centres unmarked) [Compound 6]	33.8 ± 2.3	20.1 ± 1.8	11.7 ± 1.5	4.4	≥ 10	10.1	≥ 10		32.4 ± 2.7	69.9	Ki (c-Src; [11]): 0.07 ± 0.01 µM
Fc1ccc(CNc2ncnc3c2cnn3CC(Cl)c2ccc(Cl)cc2)cc1 (centres unmarked) [Compound 7]	7.1 ± 1.1	14.6 ± 0.9	3.9 ± 0.6	4.4	≥ 10				22.7 ± 2.3		CC50 at 72 h [2]: 28.6 ± 3.7 µM; Metabolite Formation M1 [3]: 4%; Metabolite Formation M3 [3]: 2%; CC50 at 72 h [4]: 37.8 ± 4.9 µM; Ki (c-Src; [11]): 0.8 ± 0.09 µM
CSc1nc(NCCc2ccccc2)c2cnn(CC(Cl)c3ccccc3)c2n1 (centres unmarked) [Compound 8]	26.1 ± 2.8	31.2 ± 2.5	5.9 ± 1.1	18.3	5.96	42.7	3.2		37.9 ± 3.9		
ClC(Cn1ncc2c(NCc3ccccc3)nc(SCCN3CCOCC3)nc21)c1ccccc1 (centres unmarked) [Compound 9]	58.2 ± 3.4	59.4 ± 3.7	2.9 ± 0.5	6.3	2.6				> 100		Metabolite Formation M1 [3]: M1 = 5 * %; QP LogS [10]: −5.6 *
Clc1ccc(C(Cl)Cn2ncc3c(NCCc4ccccc4)ncnc32)cc1 (centres unmarked) [Compound 10]	27.9 ± 2.1	46.5 ± 4.1	6.2 ± 1	4.8	≥ 10	17.2	≥ 10		33.9 ± 2.9	85.9	Ki (Abl): 0.31 ± 0.02 µM; Ki (c-Src): 0.22 ± 0.03 µM
Fc1cccc(CNc2ncnc3c2cnn3CCc2ccccc2)c1 [Compound 11]	58.4 ± 3	69.2 ± 3.9	34.1 ± 2.9	5.2	≥ 10	6.7	≥ 10	113 to 114	56.9 ± 3.3		
ClC(Cn1ncc2c(Nc3ccccc3)ncnc21)c1ccc(Br)cc1 (centres unmarked) [Compound 12]	> 100	> 100	> 100								IC50 (U-87 GBM cell line [1]): 14 ± 1.9 µM; Metabolic Stability [3]: ≥ 90%

Source: article PMC9966370, “Biological Evaluation and In Vitro Characterization of ADME Profile of In-House Pyrazolo[3,4-d]pyrimidines as Dual Tyrosine Kinase Inhibitors Active against Glioblastoma Multiforme” (Pharmaceutics, 2023)
